Test results as given in ChEMBL document CHEMBL1147286, “7-O-methylhorminone and other cytotoxic diterpene quinones from Lepechinia bullata” (1989).
≈ marks a conversion by molar mass, not a printed value.

Experiments:
KB = test: Cytotoxicity against human KB cells; assay type: functional; details: read-out: ED50 (the source's name)
P388 = test: Cytotoxicity against mouse P388 cells; assay type: functional; details: read-out: ED50 (the source's name)

**Q.** How did the EC50 (KB) turn out when `CC(C)C1=C(O)C(=O)C2=C(C1=O)[C@H](O)C[C@H]1C(C)(C)CCC[C@]21C` [HORMINONE] was run?
**A.** 20.2 µg/mL (≈ 60.8 µM)

**Q.** What about the EC50 (P388) of the same molecule?
**A.** 4.6 µg/mL (≈ 13.8 µM)

**Q.** Which results are given for `CO[C@@H]1C[C@H]2C(C)(C)CCC[C@]2(C)C2=C1C(=O)C(C(C)C)=C(O)C2=O`?
**A.** EC50 (KB): 13 µg/mL (≈ 37.5 µM); EC50 (P388): 4.8 µg/mL (≈ 13.9 µM)

**Q.** With `CC(C)C1=C(O)C(=O)C2=C(C=C[C@H]3C(C)(C)CCC[C@]23C)C1=O` as the molecule, how does the EC50 (KB) read?
**A.** 5.7 µg/mL (≈ 18.1 µM)

**Q.** And the EC50 (P388)?
**A.** 1.6 µg/mL (≈ 5.09 µM)
